Counter-ions that a name gives are not always drawn.
The molecules below were run against T1, human full-length HSP90 (Homo sapiens, UniProt P08238) (assay: Fluorescence Polarisation Assay (displacement of fluorescein-labelled probe RBT0045864-FAM)). Details: Fluorescence Polarisation Assay, activity range.
T1 construct: E. coli expressed human full-length HSP90 protein; made in house; host or cells: E. coli
Assay type: binding
Source text: A Fluorescence Polarization_assay was also employed for the evaluation of some of the compounds of the Examples:
Fluorescence polarization {also known as fluorescence anisotropy} measures the rotation of a fluorescing species in solution, where the larger molecule the more polarized the fluorescence emission.
When the fluorophore is excited with polarized light, the emitted light is also polarized. The molecular size is proportional to the polarization of the fluorescence emission.
Test compound is added to the assay plate, left to equilibrate and the anisotropy measured again. Any change in anisotropy is due to competitive binding of compound to HSP90, thereby releasing probe.
Stored at room temperature. • 3) BSA (bovine serum albumen) 10 mg/ml (New England Biolabs # B9001S) • 4) 20 mM probe in 100 % DMSO stock concentration. Stored in the dark at RT. Working concentration is 200 nM diluted in AR water and stored at 4 °C.
1) Add 100µl 1x buffer to wells 11A and 12A (=FP BLNK) 2) Prepare assay mix - all reagents are kept on ice with a lid on the bucket as the probe is light-sensitive.
This gives 2.5 mM {50x} stock cpd - assuming cpds 20 mM. • 4) Repeat for wells A2 to A10. Control in columns 11 and 12. • 5) Transfer 5 µl from row A to row B- not column 12. Mix well. • 6) Transfer 5 µl from row B to row C. […] Add 2 µl of 100mM standard cpd to wells B12 - H12 {is positive control } • 13)The Z' factor is calculated from zero controls and positive wells.

T1 sequence (P08238 whole entry): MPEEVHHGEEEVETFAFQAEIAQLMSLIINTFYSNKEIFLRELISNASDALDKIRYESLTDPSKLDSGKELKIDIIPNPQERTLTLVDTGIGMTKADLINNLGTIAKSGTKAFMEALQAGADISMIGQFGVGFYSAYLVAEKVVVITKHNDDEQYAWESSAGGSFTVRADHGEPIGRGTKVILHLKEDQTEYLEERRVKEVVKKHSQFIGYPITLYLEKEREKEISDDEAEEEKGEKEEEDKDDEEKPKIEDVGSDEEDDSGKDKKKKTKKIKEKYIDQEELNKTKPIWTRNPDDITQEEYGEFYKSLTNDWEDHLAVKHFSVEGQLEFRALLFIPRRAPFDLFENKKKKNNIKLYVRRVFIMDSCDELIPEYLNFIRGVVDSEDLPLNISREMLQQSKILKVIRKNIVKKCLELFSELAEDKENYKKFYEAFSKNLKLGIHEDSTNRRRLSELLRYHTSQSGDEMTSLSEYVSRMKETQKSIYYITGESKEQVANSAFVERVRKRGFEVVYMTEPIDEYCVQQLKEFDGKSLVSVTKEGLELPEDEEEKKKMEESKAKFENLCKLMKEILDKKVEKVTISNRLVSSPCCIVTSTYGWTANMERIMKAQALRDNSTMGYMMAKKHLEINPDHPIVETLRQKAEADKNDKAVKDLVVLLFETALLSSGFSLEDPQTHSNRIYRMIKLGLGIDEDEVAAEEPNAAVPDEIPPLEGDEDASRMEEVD

Compound	IC50 [µM]
CCNC(=O)c1noc(-c2cc(Cl)c(O)cc2O)c1-c1ccc(OC)cc1 [Example 25, 5-(5-chloro-2,4-dihydroxyphenyl)-4-(4-methoxy-phenyl)-isoxazole-3-carboxylic acid ethylamide]	< 10
CCNC(=O)c1noc(-c2cc(Cl)c(O)cc2O)c1-c1ccc(N2CCNCC2)cc1 [Example 26]	< 10
CCNC(=O)c1noc(-c2cc(Cl)c(O)cc2O)c1-c1ccc(F)cc1 [Example 27]	< 10
CCNC(=O)c1noc(-c2cc(Cl)c(O)cc2O)c1Br [Example 27a]	< 10
Cc1noc(-c2cc(Cl)c(O)cc2O)c1-c1cccc(CN2CCOCC2)c1 [Example 28, 4-Chloro-6-[3-methyl-4-(3-morpholin-4-ylmethyl-phenyl)-isoxazol-5-yl]-benzene-1,3-diol]	< 10
Cc1noc(-c2cc(Cl)c(O)cc2O)c1-c1cccc(CN2CCC(C(N)=O)CC2)c1 [Example 29, 1-{3-[5-(5-Chloro-2,4-dihydroxy-phenyl)-3-methyl-isoxazol-4-yl]-benzyl}-piperidine-4-carboxylic acid amide]	< 10
CC(=O)Nc1cccc(-c2c(C)noc2-c2cc(Cl)c(O)cc2O)c1 [Example 30]	< 10
CCNC(=O)c1noc(-c2cc(Cl)c(O)cc2O)c1-c1cccc(N2CCN(C)CC2)c1 [Example 31, 5-(5-Chloro-2,4-dihydroxy-phenyl)-4-[3-(4-methyl-piperazin-1-yl)-phenyl]-isoxazole-3-carboxylic acid ethylamide]	< 10
CCNC(=O)c1noc(-c2cc(Cl)c(O)cc2O)c1-c1ccc2ccccc2c1 [Example 32]	< 10
CCNC(=O)c1noc(-c2cc(Cl)c(O)cc2O)c1-c1ccc2ncccc2c1 [Example 33]	< 10
CCNC(=O)c1noc(-c2cc(Cl)c(O)cc2O)c1-c1cccnc1 [Example 34]	< 10
CCNC(=O)c1noc(-c2cc(Cl)c(O)cc2O)c1-c1cccc2ccccc12 [Example 35]	< 10
CCNC(=O)c1noc(-c2cc(Cl)c(O)cc2O)c1-c1ccc(N2CCN(C)CC2)cc1 [Example 36]	< 10
CCNC(=O)c1noc(-c2cc(Cl)c(O)cc2O)c1-c1ccc(CNCCS(C)(=O)=O)cc1 [Example 37]	< 10
CCNC(=O)c1noc(-c2cc(Cl)c(O)cc2O)c1-c1ccc(CN2CCS(=O)(=O)CC2)cc1 [Example 38]	< 10
CCNCc1noc(-c2cc(Cl)c(O)cc2O)c1-c1ccc(OC)cc1 [Example 40]	< 10
CCNC(=O)c1noc(-c2cc(Cl)c(O)cc2O)c1-c1ccc(CN2CCOCC2)cc1 [Example 41, 5-(5-Chloro-2,4-dihydroxy-phenyl)-4-(4-morpholin-4-ylmethyl-phenyl)-isoxazole-3-carboxylic acid ethylamide]	< 10
CCNC(=O)c1noc(-c2cc(Cl)c(O)cc2O)c1-c1ccc(CNCc2ccoc2)cc1 [Example 41a]	< 10
CCNC(=O)c1noc(-c2cc(CC)c(O)cc2O)c1-c1ccc(CN(CC)CC)cc1 [Example 41b]	< 10

Compound	IC50 [µM]
CNC(=O)c1noc(-c2cc(Cl)c(O)cc2O)c1-c1ccc(CN2CCCCC2)cc1 [Example 41c]	< 10
CCNC(=O)c1noc(-c2cc(Cl)c(O)cc2O)c1-c1ccc(F)cc1F [Example 41e]	< 10
CCNC(=O)c1noc(-c2cc(Cl)c(O)cc2O)c1-c1ccc(CN2CCOCC2)c(F)c1 [Example 41g]	< 10
NC(=O)c1noc(-c2cc(Cl)c(O)cc2O)c1-c1ccc(CN2CCCCC2)cc1 [Example 41h]	< 10
CCNC(=O)c1noc(-c2cc(Cl)c(O)cc2O)c1-c1ccc(CN2CCCCC2)cc1C [Example 41i]	< 10
CCNC(=O)c1noc(-c2cc(Cl)c(O)cc2O)c1-c1ccc(CN2CCOCC2)cc1C [Example 41j]	< 10
CCNC(=O)c1noc(-c2cc(Cl)c(O)cc2O)c1-c1ccccc1CN1CCOCC1 [Example 41m]	< 10
CCNC(=O)c1noc(-c2cc(Cl)c(O)cc2O)c1-c1ccc(CO)cc1 [Example 41n]	< 10
CC(C)NC(=O)c1noc(-c2cc(Cl)c(O)cc2O)c1-c1ccc(CN2CCCCC2)cc1 [Example 41p]	< 10
CCNC(=O)c1noc(-c2cc(Cl)c(O)cc2O)c1-c1ccc(OCCN(CC)CC)cc1 [Example 41q]	< 10
CCNC(=O)c1noc(-c2cc(Cl)c(O)cc2O)c1-c1ccc(CN2CCCCC2)c2ccccc12 [Example 41r]	< 10
CCNC(=O)c1noc(-c2cc(Cl)c(O)cc2O)c1-c1ccccc1CN1CCN(C)CC1 [Example 41s]	< 10
CCNC(=O)c1noc(-c2cc(Cl)c(O)cc2O)c1-c1ccc(C(C)N2CCOCC2)cc1 (stereo not shown) [Example 42]	< 10
CCNC(=O)c1noc(-c2cc(Cl)c(O)cc2O)c1-c1cccc(C(C)N2CCOCC2)c1 (stereo not shown) [Example 44]	< 10
CCNC(=O)c1noc(-c2cc(Cl)c(O)cc2O)c1-c1cccc(CN2CCOCC2)c1 [Example 45]	< 10
CCNC(=O)c1noc(-c2cc(Cl)c(O)cc2O)c1-c1ccc(CN2CCN(C)CC2)cc1 [Example 47]	< 10
CCNC(=O)c1noc(-c2cc(Cl)c(O)cc2O)c1-c1cccc(CN2CCN(C)CC2)c1 [Example 48]	< 10
CCNC(=O)c1noc(-c2cc(Cl)c(O)cc2O)c1-c1ccc(CN(CC)CC)cc1 [Example 49]	< 10
CCNC(=O)c1noc(-c2cc(Cl)c(O)cc2O)c1-c1ccc(CN2CCC(CO)CC2)cc1 [Example 50]	< 10

Compound	IC50 [µM]
CCNC(=O)c1noc(-c2cc(Cl)c(O)cc2O)c1-c1ccc(CN2CCC(CCO)CC2)cc1 [Example 51]	< 10
CCNC(=O)c1noc(-c2cc(Cl)c(O)cc2O)c1-c1ccc(CN2CCC(O)CC2)cc1 [Example 53]	< 10
CCNC(=O)c1noc(-c2cc(CC)c(O)cc2O)c1-c1ccc(CN2CCOCC2)cc1 [Example 55]	< 10
CCNC(=O)c1noc(-c2cc(CC)c(O)cc2O)c1-c1ccc(CN2CCCCC2)cc1 [Example 56]	< 10
CCNC(=O)c1noc(-c2cc(CC)c(O)cc2O)c1-c1ccc(CN2CCN(C)CC2)cc1 [Example 57]	< 10
CCNC(=O)c1noc(-c2cc(Cl)c(O)cc2O)c1-c1ccc(CNCc2cccnc2)cc1 [Example 58]	< 10
CCNC(=O)c1noc(-c2cc(Cl)c(O)cc2O)c1-c1ccc(CN(C)C)cc1 [Example 59]	< 10
CCNC(=O)c1noc(-c2cc(Cl)c(O)cc2O)c1-c1cccc(CN2CCN(C(C)=O)CC2)c1 [Example 62]	< 10
CCNC(=O)c1noc(-c2cc(Cl)c(O)cc2O)c1-c1ccc(F)c(CN2CCN(C(C)=O)CC2)c1 [Example 63]	< 10
CCNC(=O)c1noc(-c2cc(Cl)c(O)cc2O)c1-c1ccc(F)c(CN2CCOCC2)c1 [Example 64]	< 10
CCNC(=O)c1noc(-c2cc(CCc3ccccc3)c(O)cc2O)c1-c1ccc(CN2CCOCC2)cc1 [Example 65, 5-(2,4-dihydroxy-5-phenethyl-phenyl)-4-(4-morpholin-4-ylmethylphenyl)-isoxazole-3-carboxylic acid ethylamide hydrochloride]	< 10
CCNC(=O)c1noc(-c2cc(-c3ccccc3)c(O)cc2O)c1-c1ccc(F)cc1 [Example 67]	< 10
CCNC(=O)c1noc(-c2cc(CCc3ccc(F)cc3)c(O)cc2O)c1-c1ccc(CN2CCCCC2)cc1 [Example 69]	< 10
CCNC(=O)c1noc(-c2cc(CCc3ccc(F)cc3)c(O)cc2O)c1-c1ccc(CN2CCOCC2)cc1 [Example 70]	< 10
CCNC(=O)c1noc(-c2cc(-c3ccc(F)cc3)c(O)cc2O)c1-c1ccc(F)cc1 [Example 71]	< 10
CCNC(=O)c1noc(-c2cc(-c3ccc(F)cc3)c(O)cc2O)c1-c1ccc(CN2CCCCC2)cc1 [Example 72]	< 10
CCNC(=O)c1noc(-c2cc(-c3ccc(F)cc3)c(O)cc2O)c1-c1ccc(CN2CCOCC2)cc1 [Example 73]	< 10
CCNC(=O)c1noc(-c2cc(-c3ccccc3)c(O)cc2O)c1-c1ccc(CN2CCOCC2)cc1 [Example 74]	< 10
CCNC(=O)c1noc(-c2cc(CCc3cccc(F)c3)c(O)cc2O)c1-c1ccc(CN2CCOCC2)cc1 [Example 75]	< 10

Same assay, conditions: Fluorescence Polarisation Assay, key in footnote of the table

Compound	IC50 [µM]
COc1ccc(-c2c(C)noc2-c2cc(C#N)c(O)cc2O)cc1 [Example 12b]	< 10

Same assay, conditions: table names no assay; parent examples tested in fluorescence polarization assay

Compound	IC50 [µM]
CCNC(=O)c1noc(-c2cc(CCc3cccc(C)c3)c(O)cc2O)c1-c1ccc(CN2CCCCC2)cc1 [Example 75a]	< 10
CCNC(=O)c1noc(-c2cc(-c3ccccc3)c(O)cc2O)c1-c1ccc(CN2CCCCC2)cc1 [Example 75b]	< 10
CCNC(=O)c1noc(-c2cc(CCc3cccc(C)c3)c(O)cc2O)c1-c1ccc(CN2CCOCC2)cc1 [Example 75c]	< 10
CCNC(=O)c1noc(-c2cc(-c3ccccc3F)c(O)cc2O)c1-c1ccc(CN2CCCCC2)cc1 [Example 75d]	< 10
CCNC(=O)c1noc(-c2cc(CCc3cccc(F)c3)c(O)cc2O)c1-c1ccc(CN2CCCCC2)cc1 [Example 75e]	< 10
CCNC(=O)c1noc(-c2cc(-c3ccccc3F)c(O)cc2O)c1-c1ccc(CN2CCOCC2)cc1 [Example 75f]	< 10

— patent EP1611112B1, “ISOXAZOLE COMPOUNDS AS INHIBITORS OF HEAT SHOCK PROTEINS” (Vernalis (Cambridge) Limited, priority 2003, dated 2004)
